Results taken from patent US9149038B2, “4-amino-6-(heterocyclic)picolinates and 6-amino-2-(heterocyclic)pyrimidine-4-carboxylates and their use as herbicides” (Dow AgroSciences LLC, priority 2013, dated 2015).
Like-named read-outs stand apart in the source and are kept apart here.

Tested on: Wheat and Barley and weed species
Assay: Post-Emergent Test III: postemergent herbicidal activity in wheat and barley, visual rating after 21 d and probit GR20/GR50/GR80/GR90 (Tables 9-13)
Assay type: in vivo
Settings: for GR50 ALOMY / GR50 APESV / GR50 KCHSC / GR50 LOLSS / GR50 SETVI: growth reduction of 50%; for GR50 ALOMY / GR80 ALOMY / GR90 ALOMY / GR50 APESV / GR80 APESV / GR90 APESV / GR20 HORVS / GR50 KCHSC / GR80 KCHSC / GR90 KCHSC / GR50 LOLSS / GR80 LOLSS / GR90 LOLSS / GR50 SETVI / GR80 SETVI / GR90 SETVI / GR20 TRZAS: probit analysis; for GR80 ALOMY / GR80 APESV / GR80 KCHSC / GR80 LOLSS / GR80 SETVI: growth reduction of 80%; for GR90 ALOMY / GR90 APESV / GR90 KCHSC / GR90 LOLSS / GR90 SETVI: growth reduction of 90%; for GR20 HORVS / GR20 TRZAS: growth reduction of 20%; for pest or weed control at 35 g/ha / pest or weed control at 70 g/ha / pest or weed control at 140 g/ha / pest or weed control at 17.5 g/ha: post-emergence, 504 h; for Visual Growth Reduction (%) 21 Days After Application KCHSC / GR50 KCHSC / GR80 KCHSC / GR90 KCHSC: KCHSC kochia (Kochia scoparia)
From the text: Herbicidal evaluations were made visually on a scale of 0 to 100 where 0 represents no activity and 100 represents complete plant death.
Seeds of the desired test plant species were planted in Sun Gro MetroMix® 306 planting mixture, which typically has a pH of 6.0 to 6.8 and an organic matter content of about 30 percent, in plastic pots with a surface area of 103.2 square centimeters (cm^2). When required to ensure good germination and healthy plants, a fungicide treatment and/or other chemical or physical treatment was applied. The plants were grown for 7-36 days (d) in a greenhouse with an approximate 14 hour (h) photoperiod which was maintained at about 18° C. during the day and 17° C. during the night. Nutrients and water were added on a regular basis and supplemental lighting was provided with overhead metal halide 1000-Watt lamps as necessary. The plants were employed for testing when they reached the second or third true leaf stage.
A weighed amount, determined by the highest rate to be tested, of each test compound was placed in a 25 mL glass vial and was dissolved in 4 mL of a 97:3 v/v mixture of acetone and DMSO to obtain concentrated stock solutions. […] The concentrated stock solutions obtained were diluted with 20 mL of an aqueous mixture containing acetone, water, isopropyl alcohol, DMSO, Agri-Dex crop oil concentrate, and X-77 surfactant in a 48:39:10:1.5:1.5:0.02 v/v ratio to obtain spray solutions containing the highest application rates. Additional application rates were obtained by serial dilution of 12 mL of the high rate solution into a solution containing 2 mL of a 97:3 v/v mixture of acetone and DMSO and 10 mL of an aqueous mixture containing acetone, water, isopropyl alcohol, DMSO, Agri-Dex crop oil concentrate, and X-77 surfactant in a 48:39:10:1.5:1.5:0.02 v/v ratio to obtain ½×, ¼×, ⅛× and 1/16× rates of the high rate. Compound requirements are based upon a 12 mL application volume at a rate of 187 liters per hectare (L/ha). Formulated compounds were applied to the plant material with an overhead Mandel track sprayer equipped with 8002E nozzles calibrated to deliver 187 L/ha over an application area of 0.503 square meters at a spray height of 18 inches (43 cm) above the average plant canopy height. Control plants were sprayed in the same manner with the solvent blank.
The treated plants and control plants were placed in a greenhouse as described above and watered by subirrigation to prevent wash-off of the test compounds. After 21 d, the condition of the test plants as compared with that of the untreated plants was determined visually and scored on a scale of 0 to 100 percent where 0 corresponds to no injury and 100 corresponds to complete kill and are presented as indicated in Table 4.
By applying the well-accepted probit analysis as described by J. Berkson in Journal of the American Statistical Society, 48, 565 (1953) and by D. Finney in “Probit Analysis” Cambridge University Press (1952), herbicidal injury of a specific compound at various rates can be used to calculate GR20, GR50, GR80 and GR90 values, which are defined as growth reduction factors that correspond to the effective dose of herbicide required to provide plant growth reduction (GR) of 20 percent, 50 percent, 80 percent and 90 percent, respectively. Probit analysis was applied to data collected from multiple dose rates of individual compounds utilizing the procedures explained in the following examples. The data for some of the dose rates and analysis of all of the dose rates are captured in the following tables.

[1] = ALOMY black-grass (Alopecurus myosuroides)
[2] = APESV bentgrass (Apera spica-venti)
[3] = Hordeum vulgare, HORVS barley, spring (crop), 35 g ai/ha, read-out: Visual Growth Reduction (%) 21 Days After Application HORVS
[4] = Hordeum vulgare, HORVS barley, spring (crop), 70 g ai/ha, read-out: Visual Growth Reduction (%) 21 Days After Application HORVS
[5] = SETVI green foxtail (Setaria viridis)
[6] = Triticum aestivum, TRZAS wheat, spring (crop), 35 g ai/ha, read-out: Visual Growth Reduction (%) 21 Days After Application TRZAS
[7] = Triticum aestivum, TRZAS wheat, spring (crop), 70 g ai/ha, read-out: Visual Growth Reduction (%) 21 Days After Application TRZAS
[8] = ALOMY black-grass (Alopecurus myosuroides), 35 g ai/ha, read-out: Visual Growth Reduction (%) 21 Days After Application ALOMY
[9] = ALOMY black-grass (Alopecurus myosuroides), 70 g ai/ha, read-out: Visual Growth Reduction (%) 21 Days After Application ALOMY
[10] = APESV bentgrass (Apera spica-venti), 35 g ai/ha, read-out: Visual Growth Reduction (%) 21 Days After Application APESV
[11] = APESV bentgrass (Apera spica-venti), 70 g ai/ha, read-out: Visual Growth Reduction (%) 21 Days After Application APESV
[12] = LOLSS ryegrass, 35 g ai/ha, read-out: Visual Growth Reduction (%) 21 Days After Application LOLSS
[13] = LOLSS ryegrass, 70 g ai/ha, read-out: Visual Growth Reduction (%) 21 Days After Application LOLSS
[14] = SETVI green foxtail (Setaria viridis), 35 g ai/ha, read-out: Visual Growth Reduction (%) 21 Days After Application SETVI
[15] = SETVI green foxtail (Setaria viridis), 70 g ai/ha, read-out: Visual Growth Reduction (%) 21 Days After Application SETVI

Row | Structure (SMILES) | GR50 ALOMY [1] [g ai/ha] | GR80 ALOMY [1] [g ai/ha] | GR90 ALOMY [1] [g ai/ha] | GR50 APESV [2] [g ai/ha] | GR80 APESV [2] [g ai/ha] | GR90 APESV [2] [g ai/ha] | GR20 HORVS (HORVS barley, spring (crop)) [g ai/ha] | pest or weed control at 35 g/ha [3] [%] | pest or weed control at 70 g/ha [4] [%] | Visual Growth Reduction (%) 21 Days After Application KCHSC (35 g ai/ha) | Visual Growth Reduction (%) 21 Days After Application KCHSC (70 g ai/ha) | GR50 KCHSC [g ai/ha] | GR80 KCHSC [g ai/ha] | GR90 KCHSC [g ai/ha] | GR50 LOLSS (LOLSS ryegrass) [g ai/ha] | GR80 LOLSS (LOLSS ryegrass) [g ai/ha] | GR90 LOLSS (LOLSS ryegrass) [g ai/ha] | GR50 SETVI [5] [g ai/ha] | GR80 SETVI [5] [g ai/ha] | GR90 SETVI [5] [g ai/ha] | other results
1 | COC(=O)c1nc(-c2ccc3c(c2F)OC(F)(F)O3)c(F)c(N)c1Cl [Compound 10] | 52 | 109 | >140 | 65 | 106 | 138 | 11 | 60 to 74 | 75 to 84 | G (0-29) | D (60-74) | 78 | 117 | >140 | 93 | >140 | >140 | 36 | 63 | 85 | pest or weed control at 140 g/ha (Hordeum vulgare, HORVS barley, spring (crop), 140 g ai/ha, read-out: Visual Growth Reduction (%) 21 Days After Application HORVS): 85 to 94%; Visual Growth Reduction (%) 21 Days After Application KCHSC (140 g ai/ha): C (75-84); GR20 TRZAS (TRZAS wheat, spring (crop)): 4 g ai/ha; pest or weed control at 35 g/ha [6]: 60 to 74%; pest or weed control at 70 g/ha [7]: 85 to 94%; pest or weed control at 140 g/ha (Triticum aestivum, TRZAS wheat, spring (crop), 140 g ai/ha, read-out: Visual Growth Reduction (%) 21 Days After Application TRZAS): 85 to 94%; pest or weed control at 35 g/ha [8]: 30 to 44%; pest or weed control at 70 g/ha [9]: 45 to 59%; pest or weed control at 140 g/ha (ALOMY black-grass (Alopecurus myosuroides), 140 g ai/ha, read-out: Visual Growth Reduction (%) 21 Days After Application ALOMY): 85 to 94%; pest or weed control at 35 g/ha [10]: 0 to 29%; pest or weed control at 70 g/ha [11]: 45 to 59%; pest or weed control at 140 g/ha (APESV bentgrass (Apera spica-venti), 140 g ai/ha, read-out: Visual Growth Reduction (%) 21 Days After Application APESV): 85 to 94%; pest or weed control at 35 g/ha [12]: 0 to 29%; pest or weed control at 70 g/ha [13]: 30 to 44%; pest or weed control at 140 g/ha (LOLSS ryegrass, 140 g ai/ha, read-out: Visual Growth Reduction (%) 21 Days After Application LOLSS): 60 to 74%; pest or weed control at 35 g/ha [14]: 60 to 74%; pest or weed control at 70 g/ha [15]: 75 to 84%; pest or weed control at 140 g/ha (SETVI green foxtail (Setaria viridis), 140 g ai/ha, read-out: Visual Growth Reduction (%) 21 Days After Application SETVI): 95 to 100%
2 | COC(=O)c1nc(-c2ccc3c(c2)OC(C)(C)O3)c(F)c(N)c1Cl [Compound 8] | >70 | >70 | >70 | 22 | 36 | 46 | 7 | 60 to 74 | 60 to 74 | D (60-74) | D (60-74) | 21 | >70 | >70 | >70 | >70 | >70 | 11 | 72 | >70 | pest or weed control at 17.5 g/ha (Hordeum vulgare, HORVS barley, spring (crop), 17.5 g ai/ha, read-out: Visual Growth Reduction (%) 21 Days After Application HORVS): 30 to 44%; Visual Growth Reduction (%) 21 Days After Application KCHSC (17.5 g ai/ha): E (45-59); GR20 TRZAS (TRZAS wheat, spring (crop)): 6 g ai/ha; pest or weed control at 17.5 g/ha (Triticum aestivum, TRZAS wheat, spring (crop), 17.5 g ai/ha, read-out: Visual Growth Reduction (%) 21 Days After Application TRZAS): 30 to 44%; pest or weed control at 35 g/ha [6]: 60 to 74%; pest or weed control at 70 g/ha [7]: 60 to 74%; pest or weed control at 17.5 g/ha (ALOMY black-grass (Alopecurus myosuroides), 17.5 g ai/ha, read-out: Visual Growth Reduction (%) 21 Days After Application ALOMY): 0 to 29%; pest or weed control at 35 g/ha [8]: 30 to 44%; pest or weed control at 70 g/ha [9]: 45 to 59%; pest or weed control at 17.5 g/ha (APESV bentgrass (Apera spica-venti), 17.5 g ai/ha, read-out: Visual Growth Reduction (%) 21 Days After Application APESV): 0 to 29%; pest or weed control at 35 g/ha [10]: 85 to 94%; pest or weed control at 70 g/ha [11]: 85 to 94%; pest or weed control at 17.5 g/ha (LOLSS ryegrass, 17.5 g ai/ha, read-out: Visual Growth Reduction (%) 21 Days After Application LOLSS): 0 to 29%; pest or weed control at 35 g/ha [12]: 0 to 29%; pest or weed control at 70 g/ha [13]: 30 to 44%; pest or weed control at 17.5 g/ha (SETVI green foxtail (Setaria viridis), 17.5 g ai/ha, read-out: Visual Growth Reduction (%) 21 Days After Application SETVI): 60 to 74%; pest or weed control at 35 g/ha [14]: 75 to 84%; pest or weed control at 70 g/ha [15]: 75 to 84%
